From patent publication US20230085307A1, “PYRIDAZINONE COMPOUND AND HERBICIDE” (NISSAN CHEMICAL CORPORATION, priority 2019, published 2023)

Experiments:
redroot pigweed [1] = assay: Test Example 4: herbicidal effect by soil treatment (Table 19, symbol N); format: in vivo, redroot pigweed (Amaranthus retroflexus)
Procedure, shortened: (§1)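 In this soil treatment, the formulated compound reached the seeds only through the soil: seeds were buried about 1.5 cm deep in sterilized diluvial soil, then the diluted emulsion was sprayed over the surface. After three weeks at 25° C. to 30° C. in a greenhouse, effects were graded on criteria from an earlier test.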

barnyard grass [2] = assay: Test Example 4: herbicidal effect by soil treatment (Table 19, symbol H); format: in vivo, barnyard grass (Echinochloa crus-galli)
Procedure, shortened: as §1

barnyard grass [3] = assay: Test Example 3: herbicidal effect by foliage application, Wagner pot (Table 18, symbol H); format: in vivo, barnyard grass (Echinochloa crus-galli); settings: 320 g/ha
Procedure, shortened: (§2)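 Plants were sown in alluvial soil held under 0.1–0.5 cm standing water and grown 14 days in a greenhouse at 25–30 °C. An emulsifiable formulation, water-diluted to the set dose, was then sprayed onto the foliage, and effects were scored three weeks later using previously defined criteria.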

blackgrass [4] = assay: Test Example 5: herbicidal effect by foliage application, plastic box (Table 20, symbol J); format: in vivo, blackgrass (Alopecurus myosuroides); settings: foliage application
Procedure, shortened: (§3)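 Plants were sown into sterilized diluvial soil under about 1.5 cm cover and kept in a greenhouse at 25° C. to 30° C. Fourteen days on, foliage received an even spray of the diluted emulsion. Herbicidal or crop effect was judged three weeks afterwards.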

southern crabgrass [5] = assay: Test Example 5: herbicidal effect by foliage application, plastic box (Table 20, symbol F); format: in vivo, southern crabgrass (Digitaria ciliaris); settings: foliage application
Procedure, shortened: as §3

chickweed [6] = assay: Test Example 5: herbicidal effect by foliage application, plastic box (Table 20, symbol P); format: in vivo, common chickweed (Stellaria media); settings: foliage application
Procedure, shortened: as §3

false cleavers [7] = assay: Test Example 4: herbicidal effect by soil treatment (Table 19, symbol Q); format: in vivo, false cleavers (Galium spurium)
Procedure, shortened: as §1

wild oat [8] = assay: Test Example 5: herbicidal effect by foliage application, plastic box (Table 20, symbol I); format: in vivo, wild oat (Avena fatua); settings: foliage application
Procedure, shortened: as §3

green foxtail [9] = assay: Test Example 5: herbicidal effect by foliage application, plastic box (Table 20, symbol G); format: in vivo, green foxtail (Setaria viridis); settings: foliage application
Procedure, shortened: as §3

chickweed [10] = assay: Test Example 4: herbicidal effect by soil treatment (Table 19, symbol P); format: in vivo, common chickweed (Stellaria media)
Procedure, shortened: as §1

redroot pigweed [11] = assay: Test Example 5: herbicidal effect by foliage application, plastic box (Table 20, symbol N); format: in vivo, redroot pigweed (Amaranthus retroflexus); settings: foliage application
Procedure, shortened: as §3

velvetleaf [12] = assay: Test Example 4: herbicidal effect by soil treatment (Table 19, symbol M); format: in vivo, velvetleaf (Abutilon theophrasti)
Procedure, shortened: as §1

Italian ryegrass [13] = assay: Test Example 5: herbicidal effect by foliage application, plastic box (Table 20, symbol K); format: in vivo, Italian ryegrass (Lolium multiflorum); settings: foliage application
Procedure, shortened: as §3

lambsquarters [14] = assay: Test Example 5: herbicidal effect by foliage application, plastic box (Table 20, symbol O); format: in vivo, lambsquarters (Chenopodium album); settings: foliage application
Procedure, shortened: as §3

windgrass [15] = assay: Test Example 4: herbicidal effect by soil treatment (Table 19, symbol L); format: in vivo, windgrass (Apera spica-venti)
Procedure, shortened: as §1

windgrass [16] = assay: Test Example 5: herbicidal effect by foliage application, plastic box (Table 20, symbol L); format: in vivo, windgrass (Apera spica-venti); settings: foliage application
Procedure, shortened: as §3

blackgrass [17] = assay: Test Example 4: herbicidal effect by soil treatment (Table 19, symbol J); format: in vivo, blackgrass (Alopecurus myosuroides)
Procedure, shortened: as §1

lambsquarters [18] = assay: Test Example 4: herbicidal effect by soil treatment (Table 19, symbol O); format: in vivo, lambsquarters (Chenopodium album)
Procedure, shortened: as §1

false cleavers [19] = assay: Test Example 5: herbicidal effect by foliage application, plastic box (Table 20, symbol Q); format: in vivo, false cleavers (Galium spurium); settings: foliage application
Procedure, shortened: as §3

rice flat sedge = assay: Test Example 3: herbicidal effect by foliage application, Wagner pot (Table 18, symbol E); format: in vivo, rice flat sedge (Cyperus iria); settings: 320 g/ha
Procedure, shortened: as §2

southern crabgrass [20] = assay: Test Example 4: herbicidal effect by soil treatment (Table 19, symbol F); format: in vivo, southern crabgrass (Digitaria ciliaris)
Procedure, shortened: as §1

persian speedwell [21] = assay: Test Example 4: herbicidal effect by soil treatment (Table 19, symbol R); format: in vivo, Persian speedwell (Veronica persica)
Procedure, shortened: as §1

green foxtail [22] = assay: Test Example 4: herbicidal effect by soil treatment (Table 19, symbol G); format: in vivo, green foxtail (Setaria viridis)
Procedure, shortened: as §1

Italian ryegrass [23] = assay: Test Example 4: herbicidal effect by soil treatment (Table 19, symbol K); format: in vivo, Italian ryegrass (Lolium multiflorum)
Procedure, shortened: as §1

persian speedwell [24] = assay: Test Example 5: herbicidal effect by foliage application, plastic box (Table 20, symbol R); format: in vivo, Persian speedwell (Veronica persica); settings: foliage application
Procedure, shortened: as §3

velvetleaf [25] = assay: Test Example 5: herbicidal effect by foliage application, plastic box (Table 20, symbol M); format: in vivo, velvetleaf (Abutilon theophrasti); settings: foliage application
Procedure, shortened: as §3

wild oat [26] = assay: Test Example 4: herbicidal effect by soil treatment (Table 19, symbol I); format: in vivo, wild oat (Avena fatua)
Procedure, shortened: as §1

barnyard grass [27] = assay: Test Example 5: herbicidal effect by foliage application, plastic box (Table 20, symbol H); format: in vivo, barnyard grass (Echinochloa crus-galli); settings: foliage application
Procedure, shortened: as §3

Chinese sprangletop = assay: Test Example 3: herbicidal effect by foliage application, Wagner pot (Table 18, symbol D); format: in vivo, chinese sprangletop (Leptochloa chinensis); settings: 320 g/ha
Procedure, shortened: as §2

[28] = amount of applied herbicide 320 g/ha
[29] = AAH 320 g/ha, three weeks after application
[30] = 320 g/ha, evaluated three weeks after application

Question: `Cc1nn(C)c(=O)c(-c2c(-c3cccc4c3OCC4)sc3ccccc23)c1O` [1-103] was tested. Which “herbicidal effect rating, N: redroot pigweed” value (redroot pigweed [1]; [28]) did it give?
Answer: 3 (Herbicidal rate of 40% or more and less than 70%)

Question: And the “herbicidal effect rating, H: barnyard grass” value (barnyard grass [2]; [28])?
Answer: 2 (Herbicidal rate of 20% or more and less than 40%)

Question: And the “herbicidal effect on H (barnyard grass), rating 0-5” value (barnyard grass [3])?
Answer: 3 (Herbicidal rate of 40% or more and less than 70%)

Question: What about the “J: blackgrass, herbicidal effect” value (blackgrass [4]; [29]) of the same molecule?
Answer: 3 (Herbicidal rate of 40% or more and less than 70%)

Question: And the “F: southern crabgrass, herbicidal effect” value (southern crabgrass [5]; [29])?
Answer: 3 (Herbicidal rate of 40% or more and less than 70%)

Question: What about the “P: chickweed, herbicidal effect” value (chickweed [6]; [29]) of the same molecule?
Answer: 5 (Herbicidal rate of 90% or more (almost completely withered))

Question: And the “herbicidal effect rating, Q: false cleavers” value (false cleavers [7]; [28])?
Answer: 0 (Herbicidal rate of 5% or less (almost no effect))

Question: What about the “I: wild oat, herbicidal effect” value (wild oat [8]; [29]) of the same molecule?
Answer: 0 (Herbicidal rate of 5% or less (almost no effect))

Question: What about the “G: green foxtail, herbicidal effect” value (green foxtail [9]; [29]) of the same molecule?
Answer: 3 (Herbicidal rate of 40% or more and less than 70%)

Question: What about the “herbicidal effect rating, P: chickweed” value (chickweed [10]; [28]) of the same molecule?
Answer: 1 (Herbicidal rate of 5% or more and less than 20%)

Question: What about the “N: redroot pigweed, herbicidal effect” value (redroot pigweed [11]; [29]) of the same molecule?
Answer: 3 (Herbicidal rate of 40% or more and less than 70%)

Question: What about the “herbicidal effect rating, M: velvetleaf” value (velvetleaf [12]; [28]) of the same molecule?
Answer: 0 (Herbicidal rate of 5% or less (almost no effect))

Question: And the “K: Italian ryegrass, herbicidal effect” value (Italian ryegrass [13]; [29])?
Answer: 3 (Herbicidal rate of 40% or more and less than 70%)

Question: And the “O: lambsquarters, herbicidal effect” value (lambsquarters [14]; [29])?
Answer: 3 (Herbicidal rate of 40% or more and less than 70%)

Question: And the “herbicidal effect rating, L: windgrass” value (windgrass [15]; [28])?
Answer: 0 (Herbicidal rate of 5% or less (almost no effect))

Question: What about the “L: windgrass, herbicidal effect” value (windgrass [16]; [29]) of the same molecule?
Answer: 0 (Herbicidal rate of 5% or less (almost no effect))

Question: And the “herbicidal effect rating, J: blackgrass” value (blackgrass [17]; [28])?
Answer: 0 (Herbicidal rate of 5% or less (almost no effect))

Question: What about the “herbicidal effect rating, O: lambsquarters” value (lambsquarters [18]; [28]) of the same molecule?
Answer: 3 (Herbicidal rate of 40% or more and less than 70%)

Question: And the “Q: false cleavers, herbicidal effect” value (false cleavers [19]; [29])?
Answer: 4 (Herbicidal rate of 70% or more and less than 90%)

Question: What about the “herbicidal effect on E (rice flat sedge), rating 0-5” value (rice flat sedge) of the same molecule?
Answer: 3 (Herbicidal rate of 40% or more and less than 70%)

Question: What about the “herbicidal effect rating, F: southern crabgrass” value (southern crabgrass [20]; [28]) of the same molecule?
Answer: 2 (Herbicidal rate of 20% or more and less than 40%)

Question: And the “herbicidal effect rating, R: persian speedwell” value (persian speedwell [21]; [28])?
Answer: 2 (Herbicidal rate of 20% or more and less than 40%)

Question: And the “herbicidal effect rating, G: green foxtail” value (green foxtail [22]; [28])?
Answer: 3 (Herbicidal rate of 40% or more and less than 70%)

Question: What about the “herbicidal effect rating, K: Italian ryegrass” value (Italian ryegrass [23]; [28]) of the same molecule?
Answer: 0 (Herbicidal rate of 5% or less (almost no effect))

Question: What about the “R: persian speedwell, herbicidal effect” value (persian speedwell [24]; [29]) of the same molecule?
Answer: 5 (Herbicidal rate of 90% or more (almost completely withered))

Question: What about the “M: velvetleaf, herbicidal effect” value (velvetleaf [25]; [29]) of the same molecule?
Answer: 4 (Herbicidal rate of 70% or more and less than 90%)

Question: What about the “herbicidal effect rating, I: wild oat” value (wild oat [26]; [28]) of the same molecule?
Answer: 0 (Herbicidal rate of 5% or less (almost no effect))

Question: And the “H: barnyard grass, herbicidal effect” value (barnyard grass [27]; [29])?
Answer: 0 (Herbicidal rate of 5% or less (almost no effect))

Question: What about the “herbicidal effect on D (Chinese sprangletop), rating 0-5” value (Chinese sprangletop) of the same molecule?
Answer: 4 (Herbicidal rate of 70% or more and less than 90%)

Question: What does the source list for `CCCC(=O)Oc1c(C)nn(C)c(=O)c1-c1c(-c2ccc(F)cc2)sc2ccc(Cl)cc12` [2-098]?
Answer: herbicidal effect rating, N: redroot pigweed (redroot pigweed [1]; 320 g/ha): 4 (Herbicidal rate of 70% or more and less than 90%); herbicidal effect rating, H: barnyard grass (barnyard grass [2]; 320 g/ha): 1 (Herbicidal rate of 5% or more and less than 20%); herbicidal effect on H (barnyard grass), rating 0-5 (barnyard grass [3]): 5 (Herbicidal rate of 90% or more (almost completely withered)); herbicidal effect on J: blackgrass (blackgrass [4]; [30]): 4 (Herbicidal rate of 70% or more and less than 90%); herbicidal effect on F: southern crabgrass (southern crabgrass [5]; [30]): 5 (Herbicidal rate of 90% or more (almost completely withered)); herbicidal effect on P: chickweed (chickweed [6]; [30]): 5 (Herbicidal rate of 90% or more (almost completely withered)); herbicidal effect rating, Q: false cleavers (false cleavers [7]; 320 g/ha): 2 (Herbicidal rate of 20% or more and less than 40%); herbicidal effect on I: wild oat (wild oat [8]; [30]): 5 (Herbicidal rate of 90% or more (almost completely withered)); herbicidal effect on G: green foxtail (green foxtail [9]; [30]): 4 (Herbicidal rate of 70% or more and less than 90%); herbicidal effect rating, P: chickweed (chickweed [10]; 320 g/ha): 4 (Herbicidal rate of 70% or more and less than 90%); herbicidal effect on N: redroot pigweed (redroot pigweed [11]; [30]): 5 (Herbicidal rate of 90% or more (almost completely withered)); herbicidal effect rating, M: velvetleaf (velvetleaf [12]; 320 g/ha): 3 (Herbicidal rate of 40% or more and less than 70%); herbicidal effect on K: Italian ryegrass (Italian ryegrass [13]; [30]): 5 (Herbicidal rate of 90% or more (almost completely withered)); herbicidal effect on O: lambsquarters (lambsquarters [14]; [30]): 4 (Herbicidal rate of 70% or more and less than 90%); herbicidal effect rating, L: windgrass (windgrass [15]; 320 g/ha): 3 (Herbicidal rate of 40% or more and less than 70%); herbicidal effect on L: windgrass (windgrass [16]; [30]): 5 (Herbicidal rate of 90% or more (almost completely withered)); herbicidal effect rating, J: blackgrass (blackgrass [17]; 320 g/ha): 0 (Herbicidal rate of 5% or less (almost no effect)); herbicidal effect rating, O: lambsquarters (lambsquarters [18]; 320 g/ha): 4 (Herbicidal rate of 70% or more and less than 90%); herbicidal effect on Q: false cleavers (false cleavers [19]; [30]): 3 (Herbicidal rate of 40% or more and less than 70%); herbicidal effect on E (rice flat sedge), rating 0-5 (rice flat sedge): 2 (Herbicidal rate of 20% or more and less than 40%); herbicidal effect rating, F: southern crabgrass (southern crabgrass [20]; 320 g/ha): 3 (Herbicidal rate of 40% or more and less than 70%); herbicidal effect rating, R: persian speedwell (persian speedwell [21]; 320 g/ha): 4 (Herbicidal rate of 70% or more and less than 90%); herbicidal effect rating, G: green foxtail (green foxtail [22]; 320 g/ha): 0 (Herbicidal rate of 5% or less (almost no effect)); herbicidal effect rating, K: Italian ryegrass (Italian ryegrass [23]; 320 g/ha): 5 (Herbicidal rate of 90% or more (almost completely withered)); herbicidal effect on R: persian speedwell (persian speedwell [24]; [30]): 5 (Herbicidal rate of 90% or more (almost completely withered)); herbicidal effect on M: velvetleaf (velvetleaf [25]; [30]): 4 (Herbicidal rate of 70% or more and less than 90%); herbicidal effect rating, I: wild oat (wild oat [26]; 320 g/ha): 2 (Herbicidal rate of 20% or more and less than 40%); herbicidal effect on H: barnyard grass (barnyard grass [27]; [30]): 4 (Herbicidal rate of 70% or more and less than 90%); herbicidal effect on D (Chinese sprangletop), rating 0-5 (Chinese sprangletop): 4 (Herbicidal rate of 70% or more and less than 90%)
